In patent publication US10392368B2, “Pyrazolo and triazolo bicyclic compounds as JAK kinase inhibitors” (THERAVANCE BIOPHARMA R&D IP, LLC, priority 2017, dated 2019):
Read-outs that look alike come from different tables or passages of the source.

Tests used:
JAK1 = target: T1, JAK1 (Homo sapiens, UniProt P23458); assay: Biochemical JAK1 kinase assay (LanthaScreen); conditions: for Ki: read-out: JAK 1 (pKi) (converted)
T1 construct: GST; purchased Life Technologies
Summary of the method: (§1)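 TR-FRET readout (520/495 nm) using Tb-labelled pTyr701 antibody after EDTA stop, following 1 h ATP-started phosphorylation of GFP-STAT1 by recombinant GST-JAK. Compounds preincubated 1 h with enzyme and substrate; pIC50 from 4-parameter fit, Cheng-Prusoff gives pKi.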

JAK2 = target: T2, JAK2 (Homo sapiens, UniProt O60674); assay: Biochemical JAK2 kinase assay (LanthaScreen); conditions: for Ki: read-out: JAK 2 (pKi) (converted)
T2 construct: GST; purchased Life Technologies
T2 sequence (O60674 whole entry): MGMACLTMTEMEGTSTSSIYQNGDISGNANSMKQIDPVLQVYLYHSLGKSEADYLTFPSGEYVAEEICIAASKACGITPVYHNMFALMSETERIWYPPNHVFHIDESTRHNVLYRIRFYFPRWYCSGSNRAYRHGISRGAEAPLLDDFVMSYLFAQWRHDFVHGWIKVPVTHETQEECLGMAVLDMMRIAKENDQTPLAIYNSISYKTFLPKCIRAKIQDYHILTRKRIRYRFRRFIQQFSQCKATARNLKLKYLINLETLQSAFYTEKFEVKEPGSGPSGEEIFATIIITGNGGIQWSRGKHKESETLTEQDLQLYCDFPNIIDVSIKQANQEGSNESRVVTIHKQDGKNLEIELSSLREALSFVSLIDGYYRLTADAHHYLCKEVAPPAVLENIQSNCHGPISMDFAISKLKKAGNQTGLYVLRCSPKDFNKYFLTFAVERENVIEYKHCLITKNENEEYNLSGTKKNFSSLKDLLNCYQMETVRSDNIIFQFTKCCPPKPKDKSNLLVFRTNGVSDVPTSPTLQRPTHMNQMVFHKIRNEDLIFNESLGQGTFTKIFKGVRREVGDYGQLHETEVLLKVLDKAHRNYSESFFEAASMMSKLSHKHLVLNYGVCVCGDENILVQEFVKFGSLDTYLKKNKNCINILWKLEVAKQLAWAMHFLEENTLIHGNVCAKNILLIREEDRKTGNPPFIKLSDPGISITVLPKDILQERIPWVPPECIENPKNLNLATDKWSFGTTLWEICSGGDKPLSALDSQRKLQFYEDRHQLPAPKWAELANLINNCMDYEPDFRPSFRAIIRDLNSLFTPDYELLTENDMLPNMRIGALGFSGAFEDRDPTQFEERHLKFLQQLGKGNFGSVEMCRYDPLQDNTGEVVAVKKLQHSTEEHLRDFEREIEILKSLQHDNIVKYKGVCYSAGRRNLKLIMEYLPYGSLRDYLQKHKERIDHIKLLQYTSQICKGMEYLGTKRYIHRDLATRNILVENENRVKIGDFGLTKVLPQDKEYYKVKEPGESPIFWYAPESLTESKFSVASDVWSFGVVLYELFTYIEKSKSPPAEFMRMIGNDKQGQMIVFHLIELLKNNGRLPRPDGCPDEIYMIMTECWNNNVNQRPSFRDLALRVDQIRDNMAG
Summary of the method: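 GST-tagged recombinant JAK2 pre-incubated 1 h at ambient temperature with compound and GFP-STAT1 peptide in HEPES pH 7.5/MgCl2 buffer, then ATP added for a 1 h reaction with 1% DMSO. TR-FRET read after EDTA and Tb-anti-pSTAT1 (pTyr701) addition; IC50 from 4-parameter fit, converted to pKi by Cheng-Prusoff.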

[1] = tested on: IL-2 stimulated pSTAT5 in Tall-1 T cells; assay: Cellular JAK3 potency assay: inhibition of IL-2 stimulated pSTAT5 in Tall-1 T cells; type: cell-based, human; conditions: for IC50: Homo sapiens, read-out: Tall-1 (pIC50) (converted)
Summary of the method: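 In human Tall-1 T cells, IL-2 (300 ng/ml final, 30 min) drives STAT5 phosphorylation after a 1 h compound pretreatment. Lysates are assayed for pSTAT5 by AlphaLisa, and IC50 derived from signal versus concentration is expressed as pIC50.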

Tyk2 = target: T3, Tyk2 (Homo sapiens, UniProt P29597); assay: Biochemical Tyk2 kinase assay (LanthaScreen); conditions: for Ki: read-out: Tyk 2 (pKi) (converted)
T3 construct: GST; purchased Life Technologies
T3 sequence (P29597 whole entry): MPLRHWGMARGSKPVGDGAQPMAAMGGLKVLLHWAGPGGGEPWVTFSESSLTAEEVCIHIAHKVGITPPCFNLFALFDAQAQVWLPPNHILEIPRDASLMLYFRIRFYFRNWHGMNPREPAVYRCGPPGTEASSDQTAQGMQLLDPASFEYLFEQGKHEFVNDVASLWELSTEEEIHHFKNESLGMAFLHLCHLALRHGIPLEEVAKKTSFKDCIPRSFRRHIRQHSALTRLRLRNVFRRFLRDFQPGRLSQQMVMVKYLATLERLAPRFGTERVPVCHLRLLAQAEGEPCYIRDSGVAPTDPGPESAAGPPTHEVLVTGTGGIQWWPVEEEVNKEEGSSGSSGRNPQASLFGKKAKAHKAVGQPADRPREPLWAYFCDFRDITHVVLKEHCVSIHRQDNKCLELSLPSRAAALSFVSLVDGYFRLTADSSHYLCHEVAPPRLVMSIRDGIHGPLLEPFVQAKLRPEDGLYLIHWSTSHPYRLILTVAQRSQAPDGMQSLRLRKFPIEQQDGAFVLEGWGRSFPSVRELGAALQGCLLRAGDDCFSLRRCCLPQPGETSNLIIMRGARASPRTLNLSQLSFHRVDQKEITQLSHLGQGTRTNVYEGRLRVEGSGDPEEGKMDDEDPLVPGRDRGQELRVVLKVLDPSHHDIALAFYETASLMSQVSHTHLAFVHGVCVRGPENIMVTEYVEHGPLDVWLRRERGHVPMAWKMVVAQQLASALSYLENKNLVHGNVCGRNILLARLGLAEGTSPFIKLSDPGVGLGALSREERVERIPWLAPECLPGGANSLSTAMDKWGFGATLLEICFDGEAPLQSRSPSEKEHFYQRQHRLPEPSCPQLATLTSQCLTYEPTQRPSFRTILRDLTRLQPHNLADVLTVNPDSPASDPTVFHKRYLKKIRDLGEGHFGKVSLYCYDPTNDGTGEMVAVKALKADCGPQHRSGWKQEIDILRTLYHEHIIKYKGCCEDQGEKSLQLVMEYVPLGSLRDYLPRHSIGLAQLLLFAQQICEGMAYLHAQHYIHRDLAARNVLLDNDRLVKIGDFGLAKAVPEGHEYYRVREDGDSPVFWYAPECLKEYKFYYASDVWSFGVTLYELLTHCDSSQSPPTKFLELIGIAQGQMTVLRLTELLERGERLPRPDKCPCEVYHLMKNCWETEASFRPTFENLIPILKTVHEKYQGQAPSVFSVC
Summary of the method: as §1

JAK3 = target: T4, JAK3 (Homo sapiens, UniProt P52333); assay: Biochemical JAK3 kinase assay (LanthaScreen); design: GST; purchased Life Technologies; conditions: for Ki: read-out: JAK 3 (pKi) (converted)
T4 sequence (P52333 1-1124): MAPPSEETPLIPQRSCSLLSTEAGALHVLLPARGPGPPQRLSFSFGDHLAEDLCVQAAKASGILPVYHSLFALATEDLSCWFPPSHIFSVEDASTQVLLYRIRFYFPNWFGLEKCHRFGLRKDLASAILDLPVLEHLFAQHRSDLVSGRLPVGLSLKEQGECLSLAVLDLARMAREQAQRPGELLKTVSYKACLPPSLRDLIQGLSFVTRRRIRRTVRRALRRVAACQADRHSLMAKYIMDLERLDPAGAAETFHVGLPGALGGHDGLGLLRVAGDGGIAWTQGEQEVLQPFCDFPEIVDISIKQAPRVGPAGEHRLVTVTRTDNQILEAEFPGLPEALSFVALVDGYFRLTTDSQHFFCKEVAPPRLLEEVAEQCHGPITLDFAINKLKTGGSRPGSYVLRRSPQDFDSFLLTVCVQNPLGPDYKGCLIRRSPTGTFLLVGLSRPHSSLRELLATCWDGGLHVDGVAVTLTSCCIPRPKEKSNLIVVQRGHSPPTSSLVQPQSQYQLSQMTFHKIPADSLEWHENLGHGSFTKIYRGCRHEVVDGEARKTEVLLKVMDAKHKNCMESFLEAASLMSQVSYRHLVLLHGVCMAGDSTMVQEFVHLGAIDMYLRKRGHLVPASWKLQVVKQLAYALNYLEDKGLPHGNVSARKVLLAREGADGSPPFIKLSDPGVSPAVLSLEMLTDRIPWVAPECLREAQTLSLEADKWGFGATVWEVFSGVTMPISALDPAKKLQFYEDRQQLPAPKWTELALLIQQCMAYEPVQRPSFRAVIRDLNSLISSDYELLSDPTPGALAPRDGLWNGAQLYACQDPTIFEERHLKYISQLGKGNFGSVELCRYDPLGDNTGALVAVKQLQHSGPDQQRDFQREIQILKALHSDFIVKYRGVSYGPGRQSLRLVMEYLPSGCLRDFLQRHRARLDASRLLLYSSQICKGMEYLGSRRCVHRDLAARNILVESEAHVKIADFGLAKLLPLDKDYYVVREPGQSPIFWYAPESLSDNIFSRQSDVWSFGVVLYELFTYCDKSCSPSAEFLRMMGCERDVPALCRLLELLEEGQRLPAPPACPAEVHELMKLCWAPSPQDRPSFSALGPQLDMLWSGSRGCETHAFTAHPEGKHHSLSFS
Summary of the method: as §1

[2] = TALL-1, IL-2 stimulated pSTAT5 in Tall-1 T cells
[3] = selectivity: difference of pKi JAK3 and pKi JAK1
[4] = TALL-1, IL-2 stimulated pSTAT5, Tall-1 T cells
[5] = selectivity JAK3 over JAK1, difference of pKi
[6] = IL-2 stimulated pSTAT5, Tall-1 T cells
[7] = IL-2 stimulated pSTAT5 in Tall-1 T cells

T1 sequence (P23458 whole entry): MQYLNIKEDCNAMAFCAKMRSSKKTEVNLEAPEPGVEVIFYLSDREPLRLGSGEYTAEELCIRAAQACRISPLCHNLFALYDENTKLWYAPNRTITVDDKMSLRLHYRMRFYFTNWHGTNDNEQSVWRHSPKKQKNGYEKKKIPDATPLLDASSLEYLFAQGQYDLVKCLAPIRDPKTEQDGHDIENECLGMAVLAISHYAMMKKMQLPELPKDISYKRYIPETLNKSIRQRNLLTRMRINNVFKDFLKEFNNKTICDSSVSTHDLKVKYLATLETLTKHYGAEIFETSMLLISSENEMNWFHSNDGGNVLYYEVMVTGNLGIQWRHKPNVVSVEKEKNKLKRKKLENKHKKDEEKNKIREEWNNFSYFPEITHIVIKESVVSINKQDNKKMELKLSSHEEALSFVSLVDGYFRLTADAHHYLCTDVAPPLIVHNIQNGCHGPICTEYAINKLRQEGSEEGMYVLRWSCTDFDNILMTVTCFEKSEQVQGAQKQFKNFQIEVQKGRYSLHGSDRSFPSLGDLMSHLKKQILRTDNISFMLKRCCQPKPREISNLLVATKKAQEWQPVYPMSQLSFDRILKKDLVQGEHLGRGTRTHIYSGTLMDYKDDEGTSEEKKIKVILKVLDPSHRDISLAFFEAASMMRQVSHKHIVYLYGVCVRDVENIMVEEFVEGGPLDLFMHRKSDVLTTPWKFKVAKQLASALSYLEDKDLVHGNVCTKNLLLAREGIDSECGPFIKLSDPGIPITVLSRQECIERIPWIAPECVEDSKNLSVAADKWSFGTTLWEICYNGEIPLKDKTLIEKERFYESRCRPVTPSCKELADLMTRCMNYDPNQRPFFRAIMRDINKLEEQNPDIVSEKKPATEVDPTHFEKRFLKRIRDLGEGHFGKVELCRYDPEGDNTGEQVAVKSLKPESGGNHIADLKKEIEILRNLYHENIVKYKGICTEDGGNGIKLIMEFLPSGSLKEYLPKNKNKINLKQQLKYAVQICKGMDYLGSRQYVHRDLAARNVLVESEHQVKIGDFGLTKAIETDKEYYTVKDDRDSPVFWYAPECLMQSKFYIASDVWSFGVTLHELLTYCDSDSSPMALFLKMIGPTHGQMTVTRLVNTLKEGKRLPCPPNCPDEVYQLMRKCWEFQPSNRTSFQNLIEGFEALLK

SMILES | Ki (JAK1) | Ki (JAK2) | IC50 [1, 2] | Ki (Tyk2) | Ki (JAK3) | JAK3 (pKi)-JAK1 (pKi) (JAK3; [3]) | IC50 [1, 4] | JAK3 (pKi)-JAK1 (pKi) (JAK3; [5]) | JAK 1 (pKi) (JAK1) | JAK 2 (pKi) (JAK2) | Tall-1 (pIC50) [1, 6] | Tyk 2 (pKi) (Tyk2) | JAK 3 (pKi) (JAK3) | Tall-1 (pIC50) [1, 7]
C=CC(=O)N1CC[C@H](Oc2cc(-c3ccc(O)cc3)cc3[nH]nc(NC)c23)C1 [Compound 1-21] | > 0.1 µM | > 0.1 µM | 0.0316 to 0.2 µM | > 0.1 µM | 0.0001 to 0.001 µM | A (a value of 3 or above) |  |  |  |  |  |  |  | 
C=CC(=O)N1CCC(Oc2cc(-c3ccc(O)c(Cl)c3)nc3[nH]ncc23)CC1 [Compound 6-17] | > 0.1 µM | > 0.1 µM |  | > 0.1 µM | < 0.0001 µM |  | 0.0316 to 0.2 µM | A (a value of 3 or above) |  |  |  |  |  | 
C=CC(=O)N1CCC(Oc2cc(-c3ccc(O)c(F)c3)nc3[nH]ncc23)CC1 [Compound 6-18] | > 0.1 µM | > 0.1 µM |  | > 0.1 µM | < 0.0001 µM |  | 0.0316 to 0.2 µM | A (a value of 3 or above) |  |  |  |  |  | 
C=CC(=O)N1CCC[C@H](Oc2nc(-c3ccc(O)c(F)c3)cc3[nH]ncc23)C1 [Compound 8-11] |  |  |  |  |  |  |  | B (a value of 2.3 to 3) | D (a pKi value between 7 and 8 (Ki between 100 nM and 10 nM)) | D (a pKi value between 7 and 8 (Ki between 100 nM and 10 nM)) | A (a pIC50 value≥7.5 (IC50≤32 nM)) | E (a pKi value of 7 or below (Ki of 100 nM or above)) | A (a pKi value≥10 (Ki≤0.1 nM)) | 
CC1C(COc2cc(-c3ccc(O)cc3)cc3[nH]ncc23)CN1C(=O)/C=C/CN(C)C (stereo not drawn) [Compound 3-30] |  |  |  |  |  | A (a value of 3 or above) |  |  | E (a pKi value of 7 or below (Ki of 100 nM or above)) | D (a pKi value between 7 and 8 (Ki between 100 nM and 10 nM)) |  | E (a pKi value of 7 or below (Ki of 100 nM or above)) | A (a pKi value≥10 (Ki≤0.1 nM)) | B (a pIC50 value between 6.7 (included) and 7.5 (IC50 between 200 nM and 32 nM))
C=CC(=O)N1CC[C@H](Oc2cc(-c3cc(F)c(O)cc3F)cc3[nH]ncc23)C1 [Compound 1-19] |  |  |  |  |  | A (a value of 3 or above) |  |  | E (a pKi value of 7 or below (Ki of 100 nM or above)) | D (a pKi value between 7 and 8 (Ki between 100 nM and 10 nM)) |  | E (a pKi value of 7 or below (Ki of 100 nM or above)) | B (a pKi value between 9 and 10 (Ki between 1 nM and 0.1 nM)) | B (a pIC50 value between 6.7 (included) and 7.5 (IC50 between 200 nM and 32 nM))
CN(C)C/C=C/C(=O)N1CCC(Oc2cc(-c3ccc(O)c(F)c3)cc3[nH]ncc23)CC1 [Compound 6-20] | 0.01 to 0.1 µM | 0.001 to 0.01 µM |  | > 0.1 µM | 0.0001 to 0.001 µM |  | 0.0316 to 0.2 µM | B (a value of 2.3 to 3) |  |  |  |  |  | 
C[C@@H]1C[C@H](Oc2cc(-c3ccc(O)cc3)cc3[nH]ncc23)CCN1C(=O)/C=C/CN(C)C [Compound 12-28] | > 0.1 µM | 0.001 to 0.01 µM |  | > 0.1 µM | < 0.0001 µM |  | 0.0316 to 0.2 µM | A (a value of 3 or above) |  |  |  |  |  | 
C=CC(=O)N1CC(Oc2cc(-c3ccc(O)c(Cl)c3)cc3[nH]ncc23)C1 [Compound 5-4] |  |  |  |  |  | A (a value of 3 or above) |  |  | E (a pKi value of 7 or below (Ki of 100 nM or above)) | E (a pKi value of 7 or below (Ki of 100 nM or above)) |  | E (a pKi value of 7 or below (Ki of 100 nM or above)) | B (a pKi value between 9 and 10 (Ki between 1 nM and 0.1 nM)) | A (a pIC50 value≥7.5 (IC50≤32 nM))
CN(C)C/C=C/C(=O)N1CC(C(C)(C)Oc2cc(-c3ccc(O)cc3)cc3[nH]ncc23)C1 [Compound 3-24] |  |  |  |  |  | A (a value of 3 or above) |  |  | E (a pKi value of 7 or below (Ki of 100 nM or above)) | E (a pKi value of 7 or below (Ki of 100 nM or above)) |  | E (a pKi value of 7 or below (Ki of 100 nM or above)) | B (a pKi value between 9 and 10 (Ki between 1 nM and 0.1 nM)) | B (a pIC50 value between 6.7 (included) and 7.5 (IC50 between 200 nM and 32 nM))
C=CC(=O)N1CCSC(C(=O)Nc2cc(-c3ccc(O)cc3)cc3[nH]ncc23)C1 (stereo not drawn) [Compound 12-43] |  |  |  |  | < 0.0001 µM |  |  | A (a value of 3 or above) | E (a pKi value of 7 or below (Ki of 100 nM or above)) | D (a pKi value between 7 and 8 (Ki between 100 nM and 10 nM)) | A (a pIC50 value≥7.5 (IC50≤32 nM)) | E (a pKi value of 7 or below (Ki of 100 nM or above)) |  | 
C=CC(=O)N1CC[C@H](Oc2nc(-c3ccc(O)c(F)c3)cc3[nH]ncc23)C1 [Compound 1-27] | > 0.1 µM | 0.01 to 0.1 µM | 0.0316 to 0.2 µM | > 0.1 µM | < 0.0001 µM | A (a value of 3 or above) |  |  |  |  |  |  |  | 
CN(C)C/C=C/C(=O)N1CC(F)(COc2nc(-c3ccc(O)c(Cl)c3)nc3[nH]ncc23)C1 [Compound 3-50] | > 0.1 µM | > 0.1 µM | 0.0316 to 0.2 µM | > 0.1 µM | 0.0001 to 0.001 µM | A (a value of 3 or above) |  |  |  |  |  |  |  | 
CN(C)C/C=C/C(=O)N1CCC(C)(Nc2cc(-c3ccc(O)c(F)c3)cc3[nH]ncc23)CC1 [Compound 7-12] |  |  |  |  |  |  |  | A (a value of 3 or above) | E (a pKi value of 7 or below (Ki of 100 nM or above)) | D (a pKi value between 7 and 8 (Ki between 100 nM and 10 nM)) | B (a pIC50 value between 6.7 (included) and 7.5 (IC50 between 200 nM and 32 nM)) | E (a pKi value of 7 or below (Ki of 100 nM or above)) | B (a pKi value between 9 and 10 (Ki between 1 nM and 0.1 nM)) | 
